Experimental findings from patent US20210386752A1, “Uses of Electron Transport Chain Complex I or Complex II Inhibitors in Treating Cancer, Combination Therapies, and Diagnostic Methods Related Thereto” (Emory University, priority 2020, published 2021) are described below.

Test [1] has as its system venetoclax-resistant MM lines. As to the kind of experiment: Venetoclax sensitization of resistant MM lines by ETC inhibitor cotreatment, viability by AnnexinV/DAPI staining. Type of test: cell-based. Here is the method: Cell viability assessed by AnnexinV/DAPI staining.
(§1) Given the unique role of Complex II in directly connecting the TCA cycle to the ETC, the impact of selectively inhibiting either the SDH or SQR activities of Complex II on venetoclax sensitivity was tested. The venetoclax sensitization effects of TTFA (SQR inhibitor) or 3NPA (SDH inhibitor) were tested on eight venetoclax-resistant MM lines (FIG. 3A-3H). 3NPA is a structural analog of succinate, which binds irreversibly with SDH inhibiting FAD reduction and fumarate production while TTFA is a direct Qp site inhibitor. […] The efficacy of the TTFA-venetoclax cotreatment strategy was also tested in a colony-forming unit assay. MM lines (L363 and KMS11) were cultured in an agar matrix with single agents or the combination.
To further inquire whether Complex I inhibition could also sensitize MM cells to venetoclax, a Complex I inhibitor was tested ([…]).

Test [2] deals with MM lines (L363 and KMS11). As to the kind of experiment: Colony-forming unit assay in agar matrix, TTFA-venetoclax cotreatment. Type of test: cell-based. Conditions: L363 and KMS11, venetoclax 0.1 μM. How it is done: as §1
The target of test [3] is T1, succinate ubiquinone reductase (SQR) activity of Complex II (Homo sapiens, UniProt O14521+Q99643).
T1 construct: endogenous in cells; host or cells: KMS11 multiple myeloma cells, permeabilized
T1 sequence (Q99643 30-169): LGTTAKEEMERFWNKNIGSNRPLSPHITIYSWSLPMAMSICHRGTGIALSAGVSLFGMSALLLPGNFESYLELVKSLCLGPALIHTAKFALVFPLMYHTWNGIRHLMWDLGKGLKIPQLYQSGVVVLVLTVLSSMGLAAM
T1 sequence (O14521 57-159): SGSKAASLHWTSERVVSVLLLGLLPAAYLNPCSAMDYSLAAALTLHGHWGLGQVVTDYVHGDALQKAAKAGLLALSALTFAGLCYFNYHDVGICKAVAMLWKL
T1 sequence (P31040 43-664 partner): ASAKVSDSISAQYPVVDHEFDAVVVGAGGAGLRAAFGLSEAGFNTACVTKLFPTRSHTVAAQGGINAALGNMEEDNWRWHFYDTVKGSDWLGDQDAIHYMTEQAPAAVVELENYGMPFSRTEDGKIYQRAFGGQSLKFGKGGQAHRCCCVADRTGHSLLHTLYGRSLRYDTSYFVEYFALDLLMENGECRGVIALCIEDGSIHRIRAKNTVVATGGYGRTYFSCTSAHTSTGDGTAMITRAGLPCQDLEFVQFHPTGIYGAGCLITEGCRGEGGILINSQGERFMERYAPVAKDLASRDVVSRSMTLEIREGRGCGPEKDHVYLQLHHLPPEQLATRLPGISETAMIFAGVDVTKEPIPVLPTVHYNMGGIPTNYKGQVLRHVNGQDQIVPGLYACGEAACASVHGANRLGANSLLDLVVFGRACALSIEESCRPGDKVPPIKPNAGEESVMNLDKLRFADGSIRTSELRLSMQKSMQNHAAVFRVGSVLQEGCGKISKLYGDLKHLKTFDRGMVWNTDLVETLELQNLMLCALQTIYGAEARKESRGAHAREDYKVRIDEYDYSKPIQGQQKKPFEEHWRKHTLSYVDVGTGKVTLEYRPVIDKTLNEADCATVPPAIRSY
T1 sequence (P21912 29-280 partner): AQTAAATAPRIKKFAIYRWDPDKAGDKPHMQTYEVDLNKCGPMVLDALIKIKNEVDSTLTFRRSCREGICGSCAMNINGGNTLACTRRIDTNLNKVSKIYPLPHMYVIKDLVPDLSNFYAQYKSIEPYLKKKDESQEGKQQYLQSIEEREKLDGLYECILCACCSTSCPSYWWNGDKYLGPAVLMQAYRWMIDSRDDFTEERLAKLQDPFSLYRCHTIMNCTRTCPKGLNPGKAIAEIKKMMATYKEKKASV
As to the kind of experiment: SQR activity assay in permeabilized cells. Type of test: biochemical. Conditions: TTFA-treated KMS11 cells, 24 h. The text has this: (§2) Given reduced oxygen consumption rates (OCR) in sensitive cells, the activities of mitochondrial Complex I and II were examined. Mitochondrial Complex I and II receive electrons from the electron donors NADH or FADH2 respectively, that are transferred to the terminal electron acceptor (O2) via a series of redox reactions. Complex I or NADH:Coenzyme Q:oxidoreductase is the largest multimeric respiratory complex of ETC comprised of over 40 subunits with its catalytic subunit containing the NADH binding site. Electrons from NADH are transferred to FMN and then to FeS clusters and finally to ubiquinone where ubiquinone is reduced to ubiquinol. […] Complex I activity was measured using an assay that relies on immunocapture of Complex I from freshly prepared cellular protein extracts. The NADH dehydrogenase activity of immunocaptured Complex I was determined by the oxidation of NADH and simultaneous reduction of the provided dye resulting in increase in absorbance. SDH and SQR activities were measured in live permeabilized cells, containing intact mitochondria pretreated with inhibitors of Complex I (rotenone), Complex III (antimycin) and Complex IV (sodium azide), allowing for selective measurement of SQR or SDH activity. […]
Succinate ubiquinone reductase (SQR) and succinate dehydrogenase (SDH) activity assays were performed by absorbance-based assays using different electron acceptors. […]

Test [4] addresses T2, succinate dehydrogenase (SDH) (Homo sapiens, UniProt P31040).
T2 construct: endogenous in cells; host or cells: KMS11 multiple myeloma cells, permeabilized
The experiment in a line: SDH activity assay in permeabilized cells. It counts as biochemical. The conditions noted are these: TTFA-treated KMS11 cells.
Source text: as §2, with “ubiquinol. Complex II is the only enzyme that has a direct role both in the TCA cycle and ETC.” for “ubiquinol.”

The next test concerns ATF4, NOXA. The experiment in a line: Immunoblot of whole cell lysates for ATF4 and NOXA. It counts as cell-based. The conditions noted are these: 100 μM TTFA, 24 h, MM cells.
A further test relates to BIM binding to BCL-2. As to the kind of experiment: Coimmunoprecipitation of BCL-2 and bound BIM. The conditions noted are these: TTFA-treated KMS11 cells. Type of test: cell-based. How it is done:
The regulation of ATF4, BIM and NOXA in MM cells that were not sensitized by TTFA treatment were investigated. Whole-cell lysates were evaluated for total protein expression. Coimmunoprecipitations was performed to examine binding of BIM with antiapoptotic BCL-2 in KMS11 and the TTFA insensitive-t(11;14) KMS21BM cells. Induction of BIM and NOXA were observed upon TTFA treatment (FIG. 5J) only in KMS11 not in the TTFA insensitive-t(11;14) KMS21BM cells.

Test [5] concerns CD38+ CD45− gated MM cells from myeloma patient bone marrow aspirates. As to the kind of experiment: Ex vivo venetoclax sensitivity of myeloma patient samples, Annexin V staining. It counts as cell-based, human.
Method: CD38-PE and CD45-APC-Cy7 were used to gate myeloma cells. n=50 biological independent samples.
Bone marrow aspirate samples from 50 MM patients were treated with three doses of venetoclax (0.01, 0.1 and 0.5 μM) or TTFA (100 μM), or the combination for 24 h and cell death was assessed by AnnexinV staining. […] A venetoclax ICso <0.1 μM is characterized as a sensitive sample.
Bone marrow aspirates or peripheral blood samples from consenting myeloma patients were diluted to 25 mL with PBS and over laid on lymphocyte separation media. Following centrifugation, the collected buffy coat was washed with PBS and resuspended in culture medium. Cells subject to various treatments were stained with anti-CD38-phyocerythrin and anti-CD45-allophycocyanin-Cy7 to identify MM cells. CD138+ cells were purified using MACS CD138+ human microbeads. IC50S of venetoclax alone or in combination with TTFA/IACS-010759 in myeloma samples were calculated using nonlinear regression (curve-fit) analysis under agonist vs. normalized response with variable slope.

T2 sequence (P31040 43-664): as the sequence (P31040 43-664 partner) above
T2 sequence (P21912 29-280 partner): as the sequence (P21912 29-280 partner) above
T2 sequence (Q99643 30-169 partner): as the sequence (Q99643 30-169) above
T2 sequence (O14521 57-159 partner): as the sequence (O14521 57-159) above

Take `O=C(CC(=O)C(F)(F)F)c1cccs1` [TTFA, 4,4,4-trifluoro-1-(2-thienyl)-1,3-butanedione]: the sensitization to venetoclax result is “does not sensitize these cells to venetoclax” in test [1] (KMS21BM, TTFA at 100 μM) and “sensitizes myeloma cell line L363 to venetoclax more effectively than inhibition of SDHA with 3-NPA” in test [1] (L363, TTFA 100 μM, 24 h). For the same molecule, the “sensitivity to venetoclax on cotreatment” value in test [1] (eight venetoclax-resistant MM lines, 24 h) is reported as “increased sensitivity to venetoclax in six of the eight lines tested”. Besides, the “sensitization to venetoclax, cellular viability in colony-forming unit assay” value in test [2] was “sensitized MM lines to a lower dose of venetoclax”. For the same molecule, the SQR activity result in test [3] was “Significant reduction in SQR activity”. In addition, in test [4], the SDH activity entry is “remained unaffected”. Moreover, the “protein expression of ATF4, NOXA” value with ATF4, NOXA is on record as “Increased expression of ATF4, NOXA”. For the same molecule, in the test with BIM binding to BCL-2, the “BIM binding to BCL-2” value is “elevated BIM binding to BCL-2”. Also, in test [5] (100 μM TTFA plus 0.1 μM venetoclax, 24 h, 50 patient samples), the “cell death with combination” value is “significantly more cell death”. Also, the “samples sensitized (venetoclax IC50 <0.1 μM)” value in test [5] (100 μM TTFA, 15 of 50 samples) worked out at 30%. The “samples with more than a 50% decrease in venetoclax IC50” value in test [5] (100 μM TTFA, 31 of 50 samples) is recorded as 62%. Also, the “samples with increased venetoclax sensitivity (IC50 Ven+TTFA vs Ven)” value in test [5] (100 μM TTFA, 46 of 50 samples) is reported as 92%. In test [5] (of ten ex vivo resistant samples, TTFA treatment), the “samples with greater than 50% reduction in venetoclax IC50” value is “seven samples”. The “reduction in venetoclax IC50” value in test [5] (t(11;14) patient relapsed on venetoclax, TTFA treatment) is listed as “more than tenfold reduction”. Also, the “increased sensitivity to venetoclax” value in test [5] (ten ex vivo resistant samples with high SQR activity, TTFA treatment) is reported as “all ten resistant samples showed increased sensitivity”.
